Patent US20250302802A1, “METHODS AND COMPOSITIONS” (VRG 145 ZRT., priority 2024, published 2025)
Where two headings read alike, the source gives them in different places.

Columns and labels:
[1] = system: face allodynia in the infraorbital nerve ligation model; assay: Partial infraorbital nerve ligation model, reversal of face allodynia (head withdrawal threshold, von Frey); type: in vivo; conditions: Rattus norvegicus, po; per os; mean (S.E.M.); individual maximum post-dose reversals; combination in terms of doses of the individual components; read-out: ED50 (effective dose causing 50% reversal of the allodynia)
Method: Infraorbital nerve ligation models, either by partial ligation or by the loose ligation of the whole nerve (chronic constriction injury) have been used as models of trigeminal neuralgia or trigeminal neuropathic pain. […] Male Sprague-Dawley rats weighing 200-220 g at surgery and 290-390 g at the time of testing were used. As primary read-outs of tactile pain sensitivity of the face, head withdrawal thresholds were measured by repeated stimulations using von Frey filaments (Touch Test Sensory Probes, Stoelting®). Before surgery, the rats were habituated to the testing for two weeks, first by handling (for 2 days) and then by repeated touching with von Frey filaments and finally determination of 50% head withdrawal thresholds (HWT) on three consecutive days. Rats with HWT<10 g at 2 out of 3 pre-surgery tests were not enrolled in the study. Sensitivity of the orofacial region was tested using calibrated von Frey filaments, with a series of filaments with bending force ranging between 0.4-14.8 g. […] HWTs were determined using Chaplan's up-down method, starting with the filament of 2 g bending force. […] The evaluated post-dose data (HWTs in gram) were converted to percent reversals, taking the simultaneous post-dose average HWT value of the vehicle treated group as 0% and the pre-surgery average value of animals involved in the test substance-treated group as 100%.

[2] = system: periorbital allodynia in the dural inflammation model; assay: Dural inflammation (inflammatory soup) model, reversal of periorbital allodynia (periorbital threshold, von Frey); type: in vivo, rat; conditions: 90 min post-dose; for reversal of allodynia at the medium dose level: solo 0.6 mg/kg per os
From the text: Male Sprague-Dawley rats weighing approximately 250 g at surgery were used. Rats were habituated and trained for 1-2 weeks and then fitted with a stainless-steel cannula (22GA, Plastics One) under isoflurane anesthesia. […] Special attention was given not to disturb the dura. A custom flange guide cannula (22GA, Plastics One) was inserted into the hole (cut 0.5 mm below pedestal). The cannula was fixed to the bone with small screws and dental cement. A dummy that extended just past the end of the guide cannula was inserted to prevent scar tissue from forming, and thus clogging the cannula. Animals were allowed 1-2 weeks of recovery before testing and infusions began. Periorbital thresholds (POT) were monitored 7-10 days after surgery to ensure the thresholds generally returned to pre-surgery baselines.
While under isoflurane anesthesia, the infusion procedure proceeded over 5 consecutive days in which a Hamilton syringe attached to an infusion pump was used to deliver 15 μL of inflammatory soup over 8 minutes, at a rate of 1.759 μL/min. The Hamilton syringe was connected to tubing with a custom cannula injector at the tip; the syringe, tubing line, and injector were filled to the tip with inflammatory soup solution. The custom cannula injector was inserted into the flange cannula and the infusion started. The inflammatory soup contained 2 mM histamine, 2 mM bradykinin, 2 mM serotonin, and 0.2 mM prostaglandin E2 dissolved in saline.
Only animals that developed sustained hypersensitivity and satisfied the periorbital sensitivity criteria (POT<2.5 g) were enrolled into the study and each week into test groups.
Sensory testing was performed on testing days using von Frey filaments (Stoelting®, Wood Dale, Illinois) with reproducible calibrated buckling forces varying from 0.4-10 g utilizing Chaplan's up-down method. The specific fibers utilized were 3.61 (0.4 g), 3.84 (0.6 g), 4.08 (1 g), 4.31 (2 g), 4.56 (4 g), 4.74 (6 g), 4.93 (8 g), and 5.07 (10 g); 4.31 (2 g) was the starting fiber. Allodynia was tested by gently restraining the rat in the investigator's hand by holding the rat in one hand with fingers just behind the left forepaw, keeping the animal pressed against the investigator's chest. Fibers were applied by perpendicularly touching the rostral portion of the periorbital region (below the lower eye margin close to the rostral corner) causing slight buckling of the filament for approximately 5 seconds. Based on the response pattern and the force of the final filament, the withdrawal threshold (g) was calculated.
On testing days, a blinded investigator tested periorbital sensitivity pre-dose, 45 min, 90 min, and 135 min after drug administration. […]

[3] = Pharmacokinetic interaction study of lisinopril and memantine; type: in vivo; conditions: rat, serum
Method: The statistical significance of differences between corresponding solo treatment and combination treatment mean values was evaluated by Student's unpaired t-test. The areas under the curve between TO (time of dosing) and last tested timepoint (135 min) were also calculated to assess the drug exposures in each animal (Table 2).

cardiovascular system = assay: Cardiovascular telemetry in awake unrestrained normotensive rats; type: in vivo, rat; conditions: for Heart rate; difference from Vehicle treated, Mean / Mean arterial blood pressure; difference from Vehicle treated, Mean: oral gavage, post-dose period of 3-6 hours
Method: The cardiovascular parameters of normotensive rats instrumented with telemetric devices were investigated to determine whether the observed in vivo pharmacodynamic synergy exists also for cardinal side effects of the drug components of the combination. As lisinopril is an antihypertensive drug, its vasodilator and antihypertensive effects or other related cardiovascular effects may be cardinal side effects. Therefore, a cardiovascular telemetry study was performed with lisinopril, memantine and their combination in rats. Male Sprague-Dawley rats weighing 250-300 g at the start of the investigations were used. The animals were housed individually in artificially lightened chambers with a 12 h light and dark cycle (lights on at 07:00) and an ambient temperature of 20-22° C. Radiotelemetric units comprising transmitters with built in sensors (Data Sciences International, USA, Type: HD-S11) were surgically implanted into rats under sodium pentobarbital (50 mg/kg, i.p.) induced anesthesia. The rat abdomen was opened by a midline laparotomy. After visualizing the aorta, it was separated from the vena cava just caudal to the left dorsal muscular branch. A piece of 5-0 suture was placed between the vena cava and aorta so that the suture lied underneath the aorta. By this suture the aorta was temporarily occluded, and the catheter introduced into the vessel. After drying the aorta around the catheter entry site, a small amount of tissue adhesive was applied and 5-10 seconds later the suture was loosened. The bipolar ECG leads were tunneled subcutaneously into Lead II position and fixed with surgical sutures. Closure of the abdomen and skin was followed by 7 days recovery period. […] Drug tests were performed on 8 rats used repeatedly according to a 4-way crossover design, carried out in three sessions. In each session, all the 8 animals were treated and tested on 4 occasions with 3- or 4-days washout periods between treatments (i.e. Mondays and Thursdays in two weeks), so that on each occasion 4 pairs of rats were treated with 4 types of treatment (vehicle control, test substance A, test substance B and combination A+B), and during the 4 occasions all the animals were given all the 4 types of treatment according to a Latin-square 4-way crossover design. In the three consecutive 2-week-long sessions, three dose levels of test substances were tested in an escalating order. […] For evaluation and data reduction, pre-dose 10-min, post-dose 30-min segment averages were calculated and plotted (FIG. 5). […] None of the test substance treatments caused any apparent effect on the body temperature as compared to vehicle control data. The stress of handling and oral gavage administration caused a transient increase in both blood pressure and heart rate as indicated by changes in the vehicle treated data. However, after these transient changes, blood pressure and heart rate returned to the pre-dose level in the vehicle control group. […] For within session statistical analysis of differences from vehicle control, one-way ANOVA followed by Dunnett's test was used.

[4] = system: central nervous system (horizontal locomotor activity); assay: Locomotor activity test; type: in vivo, rat; conditions: 60-90 minutes post-dose
From the text: Memantine is a neurological drug with neurological side effects at high doses, such as sedative or dissociative or psychotomimetic side effects in humans, and locomotion stimulating and motor coordination impairing effects in rodents. Therefore, as a further test to see if pharmacodynamic synergy exists also for cardinal side effects of the drug components of the combination two central nervous system side effect assessing pharmacodynamic interaction studies (locomotor activity and rotarod tests) were performed with lisinopril, memantine and their combination in rats. Male Sprague Dawley rats weighing 200-250 g at start of testing were used. Animals were acclimatized to the laboratory conditions for at least 5 days before the first experiment and kept under artificial lighting between 7:00 and 19:00 in a controlled ambient temperature of 22±2° C. One hundred animals were assigned to ten treatment groups, which were tested in parallel with appropriate randomization, time shifts and cohorts needed to exploit the capacity of test apparatus. […] Corresponding dose levels of the combination were half of the doses of the solo drug treatments. […] The test substances were dissolved in physiological saline for dosing volume of […]. The test substances were administered per os by gavage. First, the locomotor test was carried out. One week later, the same animals received the same treatment and were tested in the rotarod test. The locomotor activity test detects stimulant or sedative activity. The activity meter consisted of 16 covered Plexiglas cages (40×25×25 cm) contained within a darkened enclosure and connected to silent electronic counters. Each cage was equipped with four photocell assemblies (two at each end of the cage) 3 cm above the floor to measure the number of movements by each animal (one per cage) in the horizontal plane. The number of (horizontal) crossings by each animal (one per cage) from one pair of photocells to the other was recorded by computer in 10-minute intervals. […] The cumulated events in the period of 60-90 minutes post-dose were evaluated.

[5] = system: central nervous system (rotarod performance); assay: Accelerating rotarod test; type: in vivo, rat; conditions: any of the three dose levels: 0.6, 2, 6 mg/kg solo; 0.3+0.3, 1+1, 3+3 mg/kg combination; per os; 45 and 90 min post-dose
Method: Animals were acclimatized to the laboratory conditions for at least 5 days before the first experiment and kept under artificial lighting between 7:00 and 19:00 in a controlled ambient temperature of 22±2° C. One hundred animals were assigned to ten treatment groups, which were tested in parallel with appropriate randomization, time shifts and cohorts needed to exploit the capacity of test apparatus. The test groups comprised nine test substance treated groups, of three treatment types (lisinopril, memantine and their 1:1 combination), each administered at three dose levels, and a vehicle control group for comparison. Corresponding dose levels of the combination were half of the doses of the solo drug treatments. Thus, the tested dose levels were 0.6, 2 and 6 mg/kg for the solo treatments and 0.3+0.3, 1+1 and 3+3 mg/kg for the combination. The test substances were dissolved in physiological saline for dosing volume of 5 mg/kg. The test substances were administered per os by gavage. […] One week later, the same animals received the same treatment and were tested in the rotarod test.
The rotarod test detects neurological deficits. Rats were placed on a rod (diameter: 7 cm) rotating at a constant speed of 4 revolutions per minute for a 2-minute period. When they fell off during this period they were replaced on the rod. […] The latency to fall off was recorded (cut-off: 3 minutes). […]

[6] = Lisinopril 0.3 mg/kg, read-out: Concentration of Lisinopril, Mean
[7] = Lisinopril 1 mg/kg, read-out: Concentration of Lisinopril, Mean
[8] = dose 0.3 mg/kg (combination containing the same dose of lisinopril)
[9] = dose 1 mg/kg (combination containing the same dose of lisinopril)
[10] = dose 3 mg/kg (combination containing the same dose of lisinopril)
[11] = Memantine 0.3 mg/kg, read-out: Concentration of Memantine, Mean
[12] = Memantine 1 mg/kg, read-out: Concentration of Memantine, Mean

NCCCC[C@H](N[C@@H](CCc1ccccc1)C(=O)O)C(=O)N1CCC[C@H]1C(=O)O [Lisinopril, (S)-1-[N2-(1-carboxy-3-phenylpropyl)-L-lysyl]-L-proline]
ED50 [1]: 0.488 mg/kg
ED40 (effective dose causing 40% reversal of the allodynia) ([2]; per os): 1.85 mg/kg
reversal of allodynia at the medium dose level [2]: around 15%
concentration at 45 min [3, 6]: 5.75 ng/mL
concentration at 90 min [3, 6]: 9.44 ng/mL
concentration at 135 min [3, 6]: 14.2 ng/mL
concentration at 45 min [3, 7]: 9.86 ng/mL
concentration at 90 min [3, 7]: 43 ng/mL
concentration at 135 min [3, 7]: 57 ng/mL
AUC(0-t) ([3]; dose 0.3 mg/kg, read-out: Mean AUC (AUC0-135 min) of Lisinopril, Solo (converted)): 16.7 ng·h/mL
AUC(0-t) ([3]; dose 1 mg/kg, read-out: Mean AUC (AUC0-135 min) of Lisinopril, Solo (converted)): 61 ng·h/mL
suppression of the blood pressure (cardiovascular system; almost dose-independently, 0.3-3 mg/kg): about 7 mmHg
Heart rate; difference from Vehicle treated, Mean (cardiovascular system; [8]): 8.37 beats per min
Mean arterial blood pressure; difference from Vehicle treated, Mean (cardiovascular system; [8]): −7.05 mmHg
Heart rate; difference from Vehicle treated, Mean (cardiovascular system; [9]): 20.62 beats per min
Mean arterial blood pressure; difference from Vehicle treated, Mean (cardiovascular system; [9]): −7.47 mmHg
Heart rate; difference from Vehicle treated, Mean (cardiovascular system; [10]): 29.39 beats per min
Mean arterial blood pressure; difference from Vehicle treated, Mean (cardiovascular system; [10]): −7.72 mmHg
effect on the locomotor activity ([4]; any of the three dose levels: 0.6, 2, 6 mg/kg solo, 0.3+0.3, 1+1, 3+3 mg/kg combination, per os): neither lisinopril nor the combination exerted a significant effect
effect on rotarod performance (latency to fall off) [5]: neither lisinopril, nor memantine, nor their combination had a significant effect

CC12CC3CC(C)(C1)CC(N)(C3)C2 [Memantine, 1-amino-3,5-dimethyladamantane]
ED50 [1]: 0.478 mg/kg
reversing effect on the allodynia (percent reversal) ([2]; per os 0.2, 0.6 and 2 mg/kg): ≤ 15%
reversal of allodynia at the medium dose level [2]: around 15%
concentration at 45 min [3, 11]: 5.58 ng/mL
concentration at 90 min [3, 11]: 8.46 ng/mL
concentration at 135 min [3, 11]: 8.91 ng/mL
concentration at 45 min [3, 12]: 11.4 ng/mL
concentration at 90 min [3, 12]: 22.3 ng/mL
concentration at 135 min [3, 12]: 24.2 ng/mL
AUC(0-t) ([3]; dose 0.3 mg/kg, read-out: Mean AUC (AUC0-135 min) of Memantine, Solo (converted)): 13.9 ng·h/mL
AUC(0-t) ([3]; dose 1 mg/kg, read-out: Mean AUC (AUC0-135 min) of Memantine, Solo (converted)): 34.4 ng·h/mL
effect on hemodynamic parameters (blood pressure, heart rate) (cardiovascular system; 0.3, 1 and 3 mg/kg, combination compared with lisinopril): no effect
Heart rate; difference from Vehicle treated, Mean (cardiovascular system; [8]): −2.87 beats per min
Mean arterial blood pressure; difference from Vehicle treated, Mean (cardiovascular system; [8]): −1.39 mmHg
Heart rate; difference from Vehicle treated, Mean (cardiovascular system; [9]): −8.51 beats per min
Mean arterial blood pressure; difference from Vehicle treated, Mean (cardiovascular system; [9]): 0.11 mmHg
Heart rate; difference from Vehicle treated, Mean (cardiovascular system; [10]): −3.03 beats per min
Mean arterial blood pressure; difference from Vehicle treated, Mean (cardiovascular system; [10]): −0.13 mmHg
effect on the locomotor activity ([4]; highest dose level (6 mg/kg per os)): significant increase
effect on the locomotor activity ([4]; two lower dose levels (0.6 and 2 mg/kg per os)): not at the two lower dose levels
effect on rotarod performance (latency to fall off) [5]: neither lisinopril, nor memantine, nor their combination had a significant effect
